# Data: patent publication US8053013B2, “Flavour modulating substances” (Quest International Services B.V., priority 2004, dated 2011)
# Columns and labels:
# [1] = Tasting session by a panel of experienced flavourists: solution in tap water (Example 7); details: 0.1 wt % in tap water
# Method: For a tasting session by a panel of experienced flavourists a solution comprising 0.1 wt % of a flavour composition as prepared in example 4 in tap water was prepared.
# [2] = Panel evaluation of HIT Duck Flavour samples with and without N Lactoyl glucosamine (Example 8); details: Sample B: 0.006% N Lactoyl glucosamine with 0.6% NaCl, 0.03% MSG, 0.1% HIT Duck Flavour (Quest)
# Method: Two samples were prepared as follow and compared:
# Sample A: 0.6% of NaCl, 0.03% of MSG and 0.1% of HIT Duck Flavour (Quest)
# Sample B: 0.6% of NaCl, 0.03% of MSG, 0.1% of HIT Duck Flavour (Quest) and 0.006% N Lactoyl glucosamine as prepared in example 4.
# The samples were evaluated by a panel of experienced flavourists. There was general agreement about the difference in taste between the samples: […]
smiles,measurement,setting,value
"CC(O)C(=O)N[C@H]1C(O)O[C@H](CO)[C@@H](O)[C@@H]1O (some centres unmarked) [Example 4, N-Lactoyl-Glucosamine]",taste of the solution described by panellists,[1],"strong metallic, bloody, raw meat like"
same,"taste described by flavourists, compared with sample A without the substance",[2],"savoury duck flavour, with slightly metallic taste, and more meaty character, authenticity, and naturalness than sample A"
